The results in this text go back to patent US8741932B2, “Imidazopyridine derivatives” (Piramal Enterprises Limited, priority 2009, dated 2014).

One data set deals with A2780. The experiment in a line: Cytotoxicity assay (propidium iodide), A2780. Particulars: A2780 (C3a), 1 μM; for inhibition at 1 µM: Homo sapiens. It counts as cell-based.
A further data set deals with PC3. The experiment in a line: Cytotoxicity assay (propidium iodide), PC3. Particulars: for inhibition at 1 µM: Homo sapiens, PC-3, read-out: % inhibition at 1 μM; for % inhibition at 1 μM: PC3 (C2a).
In a further data set the test system is IL-6. The experiment in a line: Human monocyte assay, LPS-stimulated IL-6. It is filed as cell-based. Particulars: human monocytes, 1 μg/ml LPS, 5 hours. As to the method:
The assay was designed as in the reference, Physiol.
Peripheral blood mononuclear cells (hPBMC) were harvested from human blood and suspended in RPMI 1640 culture medium containing 10% FCS, 100 U/mL penicillin and […] streptomycin (assay medium). Monocytes in the hPBMCs were counted using a Coulter Counter following which the cells were resuspended at 2×10^5 monocytes/mL. A cell suspension containing 2×10^4 monocytes was aliquoted per well of a 96-well plate. Subsequently, the hPBMCs were incubated for 4-5 hours at 37° C., 5% CO2 (During the incubation, the monocytes adhered to the bottom of 96-well plastic culture plate). Following the incubation, the non-adherent lymphocytes were washed with assay medium and the adherent monocytes re-fed with assay medium. After a 48-hour incubation period (37° C., 5% CO2), monocytes were pretreated with various concentrations of representative compounds of present invention (refer to table 6 and 7) (prepared in DMSO) or vehicle (0.5% DMSO) for 30 minutes and stimulated with 1 μg/ml LPS (Escherchia coli 0111:B4, Sigma Chemical Co., St. Louis, Mo.). The incubation was continued for 5 hours at 37° C., 5% CO2. Supernatants were harvested, assayed for IL-6 and TNF-α by ELISA as described by the manufacturer (BD Biosciences, USA). Dexamethasone (10 μM) was used as standard for this assay. […] Biological results for both IL-6 and TNFα are indicated in Table 6 and Table 7 respectively.

The subject of the next data set is A549. Put plainly: Cytotoxicity assay (propidium iodide), A549. It is filed as cell-based. Particulars: A549 (C1a, lung), 48 hours.
The subject of another data set is H460. The experiment in a line: Cytotoxicity assay (propidium iodide), H460. It counts as cell-based. As to conditions: H460 (C1b, lung), 48 hours.

A value given as a limit tells only on which side of the number the result lay.

Procedure for A2780: (§1) Cells from cell lines as mentioned in the table given below were seeded at a density of 3000 cells/well in a white opaque 96-well plate. Following incubation at 37° C./5% CO2 for a period of 18-24 hours, the cells were treated with various concentrations (stock solution was prepared in DMSO and subsequent dilutions were made in media as per ATCC guidelines) of the representative compounds of present invention (refer table 3) for a period of 48 hours. At the end of treatment, the spent culture medium was discarded, the cells were washed with 1×PBS and 200 μl of 7 μg/ml propidium iodide was added to each well. The plates were frozen at −70° C. for at least 24 hours. For analysis, the plates were brought to RT, allowed to thaw and were read in PolarStar fluorimeter with the fluorescence setting. The percentage of viable cells in the non treated set of wells was considered to be 100 and the percentage viability following treatment was calculated accordingly. IC50 values were calculated from graphs plotted using these percentages.
Procedure for A549: as §1
Procedure for H460: as §1
Procedure for PC3: as §1

Turning to `CN(/N=C/c1cnc2ccc(-c3cccnc3)cn12)C(=S)Nc1ccc(C#N)cc1` [Example 149, (E)-N-(4-cyanophenyl)-1-methyl-2-((6-(pyridin-3-yl)imidazo[1,2-a]pyridin-3-yl)methylene)hydrazinecarbothioamide], the inhibition at 1 µM with A2780 and in the data set with PC3 was 30 to 50% each time. Further, in the data set with IL-6 (Monocyte), the IC50 was at least 5 µM.
With `Cc1ccc(NC(=O)N(C)/N=C/c2cnc3ccc(-c4cccnc4)cn23)cc1` [Example 142, (E)-1-methyl-2-((6-(pyridin-3-yl)imidazo[1,2-a]pyridin-3-yl)methylene)-N-p-tolylhydrazinecarboxamide], the inhibition at 1 µM in the data set with A2780 and with PC3 was 30 to 50% each time. In addition, the concentration for half-maximal inhibition (IC50) with IL-6 (Monocyte) is at least 5 µM.
As to `CN(/N=C/c1cnc2ccc(-c3cccnc3)cn12)S(=O)(=O)c1ccccc1OC(F)(F)F` [Example 54, (E)-N-methyl-N′-((6-(pyridin-3-yl)imidazo[1,2-a]pyridin-3-yl)methylene)-2-(trifluoromethoxy)benzenesulfonohydrazide], the IC50 lay within 0.01 to 5 µM in the data set on A549 (Homo sapiens); 0.01 to 5 µM with H460 (Homo sapiens, NCI-H460); 0.001 to 5 µM in the data set with IL-6 (Monocyte).
Regarding `Cc1ccc(F)cc1NC(=O)N(C)/N=C/c1cnc2ccc(-c3cccnc3)cn12` [Example 144, (E)-N-(5-fluoro-2-methylphenyl)-1-methyl-2-((6-(pyridin-3-yl)imidazo[1,2-a]pyridin-3-yl)methylene)hydrazinecarboxamide], the inhibition at 1 µM with A2780 and in the data set with PC3 was 30 to 50% each time. This molecule yielded an IC50 in the data set with IL-6 (Monocyte) of at least 5 µM.
Consider `COc1ccc(NC(=S)N(C)/N=C/c2cnc3ccc(-c4cccnc4)cn23)cc1` [Example 150, (E)-N-(4-methoxyphenyl)-1-methyl-2-((6-(pyridin-3-yl)imidazo[1,2-a]pyridin-3-yl)methylene)hydrazinecarbothioamide], for which the inhibition at 1 µM in the data set on A2780 and with PC3 was 30 to 50% in each case. The molecule also came in with an IC50 with IL-6 (Monocyte) of at least 5 µM.
Turning to `CN(/N=C/c1cnc2ccc(-c3cccnc3)cn12)S(=O)(=O)c1cc(C(F)(F)F)ccc1Cl` [Example 65, (E)-2-chloro-N-methyl-N′-((6-(pyridin-3-yl)imidazo[1,2-a]pyridin-3-yl)methylene)-5-(trifluoromethyl)benzenesulfonohydrazide], the IC50 with A549 (Homo sapiens) lay within 0.01 to 5 µM; with H460 (Homo sapiens, NCI-H460) it was 0.01 to 5 µM; in the data set with IL-6 (Monocyte) it was 0.001 to 5 µM.
As for `Cc1ccccc1S(=O)(=O)N(C)/N=C/c1cnc2ccc(-c3cccnc3)cn12` [Example 53, (E)-N, 2-dimethyl-N′-((6-(pyridin-3-yl)imidazo[1,2-a]pyridin-3-yl)methylene)benzenesulfonohydrazide], the IC50 with A549 (Homo sapiens) is 0.01 to 5 µM; in the data set on H460 (Homo sapiens, NCI-H460) it was 0.01 to 5 µM; in the data set with IL-6 (Monocyte) it was 0.001 to 5 µM.
Regarding `COc1ccc(F)cc1S(=O)(=O)N(C)/N=C/c1cnc2ccc(-c3cccnc3F)cn12` [Example 88, (E)-5-Fluoro-N′-((6-(2-fluoropyridin-3-yl)imidazo[1,2-a]pyridin-3-yl)methylene)-2-methoxy-N-methylbenzenesulfonohydrazide], the IC50 lay within 0.01 to 5 µM in the data set with A549 (Homo sapiens); 0.01 to 5 µM in the data set with H460 (Homo sapiens, NCI-H460); 0.001 to 5 µM in the data set with IL-6 (Monocyte).
As to `COc1ccc(Br)cc1S(=O)(=O)N(C)/N=C/c1cnc2ccc(-c3cccnc3F)cn12` [Example 91, (E)-5-bromo-N′-((6-(2-fluoropyridin-3-yl)imidazo[1,2-a]pyridin-3-yl)methylene)-2-methoxy-N-methylbenzenesulfonohydrazide], the inhibition at 1 µM in the data set on A2780 and with PC3 was above 50% throughout.
On to `CN(N=Cc1cnc2ccc(Br)cn12)C(=S)Nc1ccc(C(F)(F)F)cc1` [Example 152, 2-((6-bromoimidazo[1,2-a]pyridin-3-yl)methylene)-1-methyl-N-(4-(trifluoromethyl)phenyl) hydrazinecarbothioamide], for which the “% inhibition at 1 μM” value with A2780 and in the data set with PC3 was “+ (50% ≧ % Inhibition ≧ 30%)” in each case. The molecule also registered an IC50 in the data set with IL-6 of 0.001 to 5 µM.
`Cc1ccc(F)c(NC(=O)N(C)/N=C/c2cnc3ccc(-c4cccnc4)cn23)c1` [Example 143, (E)-N-(2-fluoro-5-methylphenyl)-1-methyl-2-((6-(pyridin-3-yl)imidazo[1,2-a]pyridin-3-yl)methylene)hydrazinecarboxamide]: the inhibition at 1 µM in the data set on A2780 and with PC3 was 30 to 50% throughout. In the data set with IL-6 (Monocyte), the IC50 lay within 0.001 to 5 µM.
Molecule `Cc1cc2ncc(C=NN(C)S(=O)(=O)c3cc(F)ccc3C)n2cc1-c1cccnc1` [Example 118, 5-Fluoro-N, 2-dimethyl-N′-((7-methyl-6-(pyridin-3-yl)imidazo[1,2-a]pyridin-3-yl)methylene) benzenesulfonohydrazide] registered an IC50 in the data set with IL-6 (Monocyte) of at least 5 µM.
Take `Cc1ccc(-c2ccc3ncc(/C=N/N(C)S(=O)(=O)c4ccccc4C)n3c2)cn1` [Example 131, (E)-N,2-dimethyl-N′-((6-(6-methylpyridin-3-yl)imidazo[1,2-a]pyridin-3-yl)methylene)benzenesulfonohydrazide]: in the data set on IL-6 (Monocyte), the IC50 is at least 5 µM.
The molecule `CN(/N=C/c1cnc2ccc(-c3cccnc3)cn12)S(=O)(=O)c1ccc(Br)cc1OC(F)(F)F` [Example 56, (E)-4-bromo-N-methyl-N′-((6-(pyridin-3-yl)imidazo[1,2-a]pyridin-3-yl)methylene)-2-(trifluoromethoxy)benzenesulfonohydrazide] registered a concentration for half-maximal inhibition (IC50) in the data set on IL-6 (Monocyte) of 0.001 to 5 µM.
Regarding `Cc1ccc(F)c(NC(=O)N(C)N=Cc2cnc3ccc(Br)cn23)c1` [Example 146], the “% inhibition at 1 μM” value in the data set on A2780 and in the data set with PC3 was “++ (% Inhibition >50%)” in each case. In addition, the 50% inhibitory concentration (IC50) with IL-6 was at least 5 µM.
On to `Cc1cc(-c2cccnc2)cn2c(/C=N/N(C)S(=O)(=O)c3c(F)cc(F)cc3Br)cnc12` [Example 112], for which the IC50 in the data set on IL-6 is at least 5 µM.
On to `Cc1ccc(F)cc1S(=O)(=O)N(C)/N=C/c1cnc2ccc(-c3ccc(Cl)nc3)cn12` [Example 135, (E)-N′-((6-(6-Chloropyridins-3-yl)imidazo[1,2-a]pyridin-3-yl)methylene)-5-fluoro-N,2-dimethylbenzenesulfonohydrazide], for which, in the data set on IL-6, the IC50 lay within 0.001 to 5 µM.
Same read-out and setting: as for `Cc1cc(-c2cccnc2)cn2c(/C=N/N(C)S(=O)(=O)c3cc(F)cc(F)c3)cnc12` [Example 101], the figure is 0.001 to 5 µM.
Take “(E)-5-fluoro-N′-((6-(5-fluoropyridin-3-yl) imidazo[1,2-a]pyridin-3-yl)methylene)-N, 2-dimethylbenzenesulfonohydrazide [Example 132]”: the IC50 in the data set on A549 and with H460 was 0.01 to 5 µM each time.
The molecule `COc1ccc(F)cc1S(=O)(=O)N(C)/N=C/c1cnc2ccc(-c3ccc(C)nc3)cn12` [Example 130, (E)-5-Fluoro-2-methoxy-N-methyl-N′-((6-(6-methylpyridin-3-yl)imidazo[1,2-a]pyridin-3-yl)methylene)benzenesulfonohydrazide] returned an IC50 in the data set on IL-6 (Monocyte) of 0.001 to 5 µM.
Same read-out and setting: as for `CN(/N=C/c1cnc2ccc(-c3cccnc3)cn12)S(=O)(=O)c1ccc(F)cc1Cl` [Example 41, (E)-2-chloro-4-fluoro-N-methyl-N′-((6-(pyridin-3-yl)imidazo[1,2-a]pyridin-3-yl)methylene) benzenesulfonohydrazide], the figure is 0.001 to 5 µM; as for `Cc1cc(-c2cccnc2)cn2c(/C=N/N(C)S(=O)(=O)c3ccc(F)cc3Br)cnc12` [Example 114, (E)-2-Bromo-4-fluoro-N-methyl-N′-((8-methyl-6-(pyridin-3-yl)imidazo[1,2-a]pyridin-3-yl)methylene)benzenesulfonohydrazide], at least 5 µM; as for `Cc1cc2ncc(C=NN(C)S(=O)(=O)c3ccccc3C#N)n2cc1-c1cccnc1` [Example 117, 2-Cyano-N-methyl-N′-((7-methyl-6-(pyridin-3-yl)imidazo[1,2-a]pyridin-3-yl)methylene) benzenesulfonohydrazide], at least 5 µM.
For `CN(/N=C/c1cnc2ccc(-c3cccnc3)cn12)S(=O)(=O)c1ccccc1[N+](=O)[O-]` [Example 58, (E)-N-methyl-2-nitro-N′-((6-(pyridin-3-yl)imidazo[1,2-a]pyridin-3-yl)methylene)benzenesulfonohydrazide], in the data set with IL-6 (Monocyte), the half-maximal inhibitory concentration (IC50) lay in the range of 0.001 to 5 µM.
The same measure, in the same setting: as for `CN(/N=C/c1cnc2ccc(-c3cccnc3)cn12)S(=O)(=O)c1ccc(I)cc1` [Example 46, (E)-4-Iodo-N-methyl-N′-((6-(pyridin-3-yl)imidazo[1,2-a]pyridin-3-yl)methylene)benzenesulfonohydrazide], the figure is at least 5 µM.

What is called inhibition is the share of the control response that was lost under treatment. The IC50 is the concentration that gives 50% inhibition. Read a high IC50 as a need for much substance.
